# Results as given in US8912179B2, “Heterocyclyl compounds as histamine H3 receptor ligands” (Suven Life Sciences Limited, priority 2010, dated 2014).
# Experiments:
# [1] = Rodent pharmacokinetic study; assay type: in vivo, Male Wistar rats; conditions: whole blood, Wistar male rat; for AUC(0-t) / Cmax / Tmax / half-life: water, blood; for bioavailability: per oral 3 mg/kg vs intravenous 1 mg/kg
# Description: Male Wistar rats (230-280 grams) obtained from NIN (National Institute of Nutrition, Hyderabad, India) were used as an experimental animal. Three animals were housed in each cage. Animals were kept fasted over night and maintained on a 12 hours light/dark cycle. Three rats were dosed New chemical entity (NCE) orally (3 or 10 mg/kg) and intravenously (1 or 5 mg/kg) on day 0 and day 2.
# At each time point blood was collected by jugular vein. Blood was stored at 2-8° C. until analysis. The concentrations of the NCE compound in blood were determined using LC-MS/MS method. Schedule time points: Pre dose 0.08, 0.25, 0.5, 1, 2, 4, 6, 8 and 24 hours after dosing (n=3). The NCE compounds were quantified in blood by partially validated LC-MS/MS method using acetonitrile precipitation technique. NCE compounds were quantified in the calibration range of 1-2000 ng/mL in blood. Study samples were analyzed using calibration samples in the batch and quality control samples spread across the batch.
# Pharmacokinetic parameters were calculated by non-compartmental model using software WinNonlin version 5.0.1.
# [2] = Rodent brain penetration study; assay type: in vivo, Male Wister rats; conditions: brain / whole blood; Wistar male rat; one value per compound, table lists intravenous 1 mg/kg and per oral 3 mg/kg, water; read-out: Brain Penetration Ratio (Cb/Cp)
# Description: Male Wister rats (230-280 grams) obtained from NIN (National Institute of Nutrition, Hyderabad, India) was used as experimental animals. Three animals were housed in each cage. Animals were given water and food ad libitum throughout the experiment, and maintained on a 12 hours light/dark cycle.
# New chemical entity (NCE) was dissolved in suitable vehicle and administered orally (3 or 10 mg/kg). Around Tmax (i.e, 0.5 hour, 1.0 hour and 2.0 hours) animals were sacrificed. Blood and brain tissue were collected and brain was homogenized to yield 20% w/v. Blood was stored at 2-8° C. and brain homogenate was frozen at −20° C. until analysis. The concentrations of NCE in blood and brain were quantified using LC-MS/MS method.
# The NCE was quantified in blood and brain homogenate by partially validated LC-MS/MS method using acetonitrile precipitation technique. NCE compounds were quantified in the calibration range of 1-500 ng/mL in blood and brain homogenate. Study samples were analyzed using calibration samples in the batch and quality control samples spread across the batch. Extents of brain-blood ratio were calculated (Cb/Cp).
# rats [3] = assay: Morris water maze, reversal of scopolamine induced amnesia; assay type: in vivo, rat; conditions: p.o., dose giving reversal
# Description: The cognition-enhancing properties of compounds of this invention were estimated by using this model.
# The water maze apparatus consisted of a circular pool (1.8 m diameter, 0.6 m high) constructed in black Perspex (TSE systems, Germany) filled with water (24±2° C.) and positioned underneath a wide-angled video camera to track animal. The 10 cm^2 perspex platform, lying 1 cm below the water surface, was placed in the centre of one of the four imaginary quadrants, which remained constant for all rats. The black Perspex used in the construction of the maze and platform offered no intramaze cues to guide escape behavior. By contrast, the training room offered several strong extramaze visual cues to aid the formation of the spatial map necessary for escape learning. An automated tracking system, [Videomot 2 (5.51), TSE systems, Germany] was employed. This program analyzes video images acquired via a digital camera and an image acquisition boards that determined path length, swim speed and the number of entries and duration of swim time spent in each quadrant of the water maze.
# rats [4] = assay: Inhibition of food intake; assay type: in vivo, rat; conditions: p.o., rats fasted 18 hours
# Description: The anti-obesity properties of compounds of this invention were estimated using this model
# The experiment consisted of 6 days. The rats were adapted to the 18 hours fasting and 6 hours feeding pattern. The animals were housed in a group of three in the cages provided with the fasting grills and was fasted for 18 hours. After 18 hours fasting the rats were separated and placed individually in the cage. Weighed amount of feed was provided to rats for 6 hours and the feed intake at 1 hour, 2 hours, 4 hours and 6 hours was measured
# Again the rats were regrouped and fasted for 18 hours. The above procedure was followed for 5 days. The average cumulative food intake by the rats on the last 3 days was calculated. Animals were randomized on the basis of their previous three days food intake. On the day of experiment the rats were orally treated test compounds or vehicle. After 60 minutes, the feed was provided to the rats and the food intake at 1 hour, 2 hours, 4 hours and 6 hours was measured. The food intake by the rats treated with test compound was compared with the vehicle treated group by using Unpaired Student's t test.
# Male Wister rats = assay: Object recognition task model; assay type: in vivo, rat; conditions: for Exploration time mean ± S.E.M, Familiar object / Exploration time mean ± S.E.M, Novel object: choice trial T2, 24 hours after T1
# Description: The cognition enhancing properties of compounds of this invention were estimated by using this model.
# Male Wister rats (230-280 grams) obtained from N. I. N. (National Institute of Nutrition, Hyderabad, India) was used as experimental animals. Four animals were housed in each cage. Animals were kept on 20% food deprivation before one day and given water ad libitum throughout the experiment and maintained on a 12 hours light/dark cycle. Also the rats were habituated to individual arenas for 1 hour in the absence of any objects.
# One group of 12 rats received vehicle (1 mL/Kg) orally and another set of animals received compound of the formula (I) either orally or i.p., before one hour of the familiar (T1) and choice trial (T2).
# The experiment was carried out in a 50×50×50 cm open field made up of acrylic. In the familiarization phase, (T1), the rats were placed individually in the open field for 3 minutes, in which two identical objects (plastic bottles, 12.5 cm height×5.5 cm diameter) covered in yellow masking tape alone (a1 and a2) were positioned in two adjacent corners, 10 cms from the walls. After 24 hours of the (T1) trial for long-term memory test, the same rats were placed in the same arena as they were placed in T1 trial. Choice phase (T2) rats were allowed to explore the open field for 3 minutes in presence of one familiar object (a3) and one novel object (b) (Amber color glass bottle, 12 cm high and 5 cm in diameter). Familiar objects presented similar textures, colors and sizes. During the T1 and T2 trial, explorations of each object (defined as sniffing, licking, chewing or having moving vibrissae whilst directing the nose towards the object at a distance of less than 1 cm) were recorded separately by stopwatch. Sitting on an object was not regarded as exploratory activity, however, it was rarely observed. • T1 is the total time spent exploring the familiar objects (a1+a2). • T2 is the total time spent exploring the familiar object and novel object (a3+b).
# The object recognition test was performed as described by Ennaceur, A., Delacour, J., 1988, A new one-trial test for neurobiological studies of memory in rats—Behavioural data, Behav. Brain Res., 31, 47-59.
# Histamine H3 receptor = Histamine H3 receptor (UniProt Q9Y5N1); assay: Binding assay for human or rat histamine H3 receptor ([3H] R-α-methylhistamine); conditions: [3H] R-α-methylhistamine 3.0 nM; rat brain frontal cortex or recombinant human receptor in CHO cells (not specified which)
# Description: Compounds can be evaluated according to the following procedures.
# • Receptor source: Rat brain frontal cortex or recombinant human cDNA expressed in CHO cells • Radioligand: [^3H] R-α-methylhistamine • Final ligand concentration—[3.0 nM] • Non-specific determinant: R-α-methylhistamine (100 uM) • Reference compound: R-α-methylhistamine • Positive control: R-α-methylhistamine Incubation Conditions:
# Increasing concentrations of test compounds or standard were incubated with membrane receptors and radioligand in 5 mM MgCl2 and 50 mM TRIS-HCl (pH 7.4) for 60 minutes at room temperature. The reaction was terminated by rapid vacuum filtration onto the glass fiber filters. Radioactivity trapped onto the filters was determined and compared to the control values in order to ascertain any interactions of the test compound(s) with either cloned human or rat receptor binding site.
"AUC(0-t) ([1]; intravenous, 1 mg/kg)","Cmax ([1]; intravenous, 1 mg/kg)","Tmax ([1]; intravenous, 1 mg/kg)","half-life ([1]; intravenous, 1 mg/kg)",bioavailability [1],"AUC(0-t) ([1]; per oral, 3 mg/kg)","Cmax ([1]; per oral, 3 mg/kg)","Tmax ([1]; per oral, 3 mg/kg)","half-life ([1]; per oral, 3 mg/kg)",Kp [2],Ki (Histamine H3 receptor),SMILES,Reversal of Scopolamine Induced amnesia (rats [3]),Inhibition of food intake (rats [4]),Inference (Male Wister rats; 10 mg/kg p.o.),"Exploration time mean ± S.E.M, Familiar object (Male Wister rats; 10 mg/kg p.o.)","Exploration time mean ± S.E.M, Novel object (Male Wister rats; 10 mg/kg p.o.)",Inference (Male Wister rats; 3 mg/kg p.o.),"Exploration time mean ± S.E.M, Familiar object (Male Wister rats; 3 mg/kg p.o.)","Exploration time mean ± S.E.M, Novel object (Male Wister rats; 3 mg/kg p.o.)"
348 ± 7 ng·h/mL,320 ± 62 ng/mL,4.8 min,75 ± 6.6 min,39 ± 8%,407 ± 89 ng·h/mL,199 ± 48 ng/mL,40.2 ± 17.4 min,100 ± 12.6 min,2.17 ± 0.17,7.2 nM,"O=C(C1CC1)N1CCc2nc(OC3CCN(C4CCC4)CC3)sc2C1.O=C(O)C(O)C(O)C(=O)O [Example 4, [2-(1-Cyclobutyl-piperidin-4-yloxy)-6,7-dihydro-4H-thiazolo[5,4-c]pyridin-5-yl]-cyclopropyl-methanone tartrate]","≦10 mg/kg, p.o.","20 mg/kg, p.o.",Active,7.8 ± 1.36 s,20.32 ± 2.22 s,–,–,–
356 ± 61 ng·h/mL,436 ± 118 ng/mL,4.8 min,58.8 ± 7.8 min,49 ± 5%,524 ± 51 ng·h/mL,329 ± 23 ng/mL,25.2 ± 8.4 min,57 ± 4.2 min,1.97 ± 0.24,3.83 nM,"CCC(=O)N1CCc2nc(OC3CCN(C4CCC4)CC3)sc2C1.O=C(O)C(O)C(O)C(=O)O [Example 1, 1-[2-(1-Cyclobutyl-piperidin-4-yloxy)-6,7-dihydro-4H-thiazolo[5,4-c]pyridin-5-yl]-propan-1-one tartrate]","≦10 mg/kg, p.o.",–,–,–,–,Active,7.8 ± 1.80 s,23.95 ± 3.15 s
